Five compounds from ChEMBL document CHEMBL1144064, “Biological evaluation of proanthocyanidin dimers and related polyphenols” (J Nat Prod, 1999) can be followed below.

In one data set the test system is Salmonella paratyphi. Put plainly: Antimicrobial activity against Salmonella paratyphi. It counts as functional, Salmonella enterica subsp. enterica serovar Paratyphi A. Particulars: Salmonella enterica.
Another data set deals with Escherichia coli. The experiment in a line: Antimicrobial activity against Escherichia coli. Type of data set: functional.
Another data set concerns Enterobacter cloacae. The experiment in a line: Antimicrobial activity against Enterobacter cloacae. It counts as functional.
For the next data set, the system named is Candida albicans. Put plainly: Antimicrobial activity against Candida albicans. Type of data set: functional.
Another data set relates to Klebsiella pneumoniae. The experiment in a line: Antimicrobial activity against Klebsiella pneumoniae. It counts as functional.
A short description of data set [1]: Modulation of classical complement pathway system assessed as hemoglobin release by spectrophotometry.
Data set [2] can be described thus: Selectivity index, ratio of CC50 for human MT4 cells to IC50 for HIV infected in human MT4 cells. Type of data set: functional.
In another data set the test system is Proteus vulgaris. Put plainly: Antimicrobial activity against Proteus vulgaris. Type of data set: functional.
The nature of data set [3]: Cytotoxicity against human MT4 cells by MTT assay. It counts as cell-based.
A further data set deals with Pseudomonas aeruginosa. Put plainly: Antimicrobial activity against Pseudomonas aeruginosa. It counts as functional.
Data set [4] deals with Mycolicibacterium fortuitum. The experiment in a line: Antimicrobial activity against Mycobacterium fortuitum. Type of data set: functional.
The subject of data set [5] is Human immunodeficiency virus. The experiment in a line: Antiviral activity against HIV infected in human MT4 cells assessed as inhibition of virus-induced cytopathic effect by MTT assay. Particulars: Human immunodeficiency virus 1, MT4. Type of data set: functional, organism-based. In general terms: Cytopathic effects are the visible damage that an infection or toxin causes in cultured cells.

Data set [6] in a line: Modulation of alternative complement pathway system assessed as hemoglobin release by spectrophotometry.
The nature of data set [7]: Antioxidant activity assessed as superoxide radical anion scavenging activity. Type of data set: functional.
In a further data set the test system is Staphylococcus aureus. Put plainly: Antimicrobial activity against Staphylococcus aureus. It counts as functional.
In a further data set the test system is Simplexvirus. Put plainly: Antiviral activity against HSV up to 200 ug/mL by extracellular virucidal assay. Type of data set: functional, organism-based.
The test system of a further data set is Bacillus cereus. Put plainly: Antimicrobial activity against Bacillus cereus. It counts as functional.
The test system of a further data set is Streptococcus pyogenes. The experiment in a line: Antimicrobial activity against Streptococcus pyogenes. It counts as functional.

The structures appear in SMILES notation. Converted amounts (≈) assume the structure as drawn. The source made the active and inactive calls. The calls are words filed in the database; no cut-off is given here.

In general, MIC refers to the least concentration at which growth counts as inhibited. Higher therefore signals weaker potency. A word on the IC50: it is the concentration that gives 50% inhibition. Usually CC50 stands for the concentration that lowers cell viability or growth by half. For the compound `Oc1cc(O)c2c(c1)O[C@H](c1cc(O)c(O)c(O)c1)[C@H](O)C2` [EPIGALLOCATECHIN], the MBC in the data set with Salmonella paratyphi was above 100 µg/mL; against Escherichia coli, above 100 µg/mL; against Enterobacter cloacae it was above 100 µg/mL; in the data set on Candida albicans, above 100 µg/mL; against Klebsiella pneumoniae, 100 µg/mL (≈ 327 µM); against Proteus vulgaris it was 100 µg/mL (≈ 327 µM). Moreover, the MBC (in the data set with Pseudomonas aeruginosa; in data set [4]; in the data set with Staphylococcus aureus) was above 100 µg/mL each time. For the same compound, the MIC is above 100 µg/mL against Salmonella paratyphi; above 100 µg/mL with Escherichia coli; above 100 µg/mL in the data set on Enterobacter cloacae; above 100 µg/mL in the data set on Candida albicans; 100 µg/mL (≈ 327 µM) with Klebsiella pneumoniae; 50 µg/mL (≈ 163 µM) in the data set with Proteus vulgaris. For the same compound, the MIC (against Pseudomonas aeruginosa; in data set [4]; in the data set on Staphylococcus aureus) was above 100 µg/mL each time. Also, the IC50 in [1] was 19.6 µM; in data set [5], above 16.1 µg/mL; in [6], 179 µM; in data set [7], 3.4 µM. Moreover, in [2], the “Ratio CC50/IC50” value is below 1. Further, in data set [3], it took 16.1 µg/mL (≈ 52.6 µM) to reach half-maximal cytotoxicity (CC50). Moreover, the result with Simplexvirus was inactive.

Turning to `Oc1cc(O)c2c(c1)O[C@@]1(c3ccc(O)c(O)c3)Oc3cc(O)c4c(c3[C@@H]2[C@H]1O)O[C@H](c1ccc(O)c(O)c1)[C@H](O)C4` [PROANTHOCYANIDIN A2], the MIC against Bacillus cereus was 100 µg/mL (≈ 173 µM); against Salmonella paratyphi it was above 100 µg/mL; against Escherichia coli, above 100 µg/mL; against Enterobacter cloacae, above 100 µg/mL; against Candida albicans, above 100 µg/mL; in the data set with Streptococcus pyogenes it was 50 µg/mL (≈ 86.7 µM). The MIC (with Pseudomonas aeruginosa; in data set [4]; in the data set on Staphylococcus aureus) was above 100 µg/mL throughout. Also, the MBC in the data set on Salmonella paratyphi was above 100 µg/mL; in the data set with Escherichia coli it was above 100 µg/mL; against Enterobacter cloacae, above 100 µg/mL; in the data set with Candida albicans, above 100 µg/mL; with Streptococcus pyogenes, 50 µg/mL (≈ 86.7 µM); against Pseudomonas aeruginosa it was above 100 µg/mL. Also, the MBC (in data set [4]; against Staphylococcus aureus) was above 100 µg/mL in each case. The IC50 in data set [1] came to 11.6 µM; in data set [5], 5.8 µg/mL (≈ 10.1 µM); in data set [6] it was 113 µM; in [7], 17.8 µM. The “Ratio CC50/IC50” value in [2] is on record as 24. In addition, it took 138 µg/mL (≈ 239 µM) to reach half-maximal cytotoxicity in data set [3] (CC50). In addition, the result with Simplexvirus was inactive.

Consider `Oc1cc(O)c2c(c1)O[C@H](c1ccc(O)c(O)c1)[C@H](O)[C@H]2c1c(O)cc2c(c1O)C[C@@H](O)[C@@H](c1ccc(O)c(O)c1)O2`, for which the MBC was above 100 µg/mL against Salmonella paratyphi; above 100 µg/mL against Escherichia coli; above 100 µg/mL against Enterobacter cloacae; above 100 µg/mL against Candida albicans; 100 µg/mL (≈ 173 µM) in the data set with Streptococcus pyogenes; above 100 µg/mL in the data set on Pseudomonas aeruginosa. Also, the MBC (in [4]; against Staphylococcus aureus) was above 100 µg/mL in each case. Also, the MIC in the data set on Salmonella paratyphi was above 100 µg/mL; with Escherichia coli it was above 100 µg/mL; in the data set with Enterobacter cloacae, above 100 µg/mL; with Candida albicans, above 100 µg/mL; in the data set with Streptococcus pyogenes, 100 µg/mL (≈ 173 µM); in the data set with Pseudomonas aeruginosa, above 100 µg/mL. Also, the MIC (in data set [4]; with Staphylococcus aureus) was above 100 µg/mL in each case. For the same compound, the values for the IC50 in [1], in data set [5] and in [7] were 51.7 µM, 8.3 µg/mL (≈ 14.3 µM) and 11.4 µM, respectively. The “Ratio CC50/IC50” value in [2] was determined as 9. In data set [3], this compound yielded a CC50 of 53.5 µg/mL (≈ 92.5 µM). For the same compound, the result (in [6]; in the data set with Simplexvirus) was inactive.

In the case of `Oc1cc(O)c2c(c1)O[C@H](c1ccc(O)c(O)c1)[C@H](O)[C@H]2c1c(O)cc(O)c2c1O[C@H](c1ccc(O)c(O)c1)[C@H](O)C2` [PROCYANIDIN B2], the MBC in the data set with Salmonella paratyphi is above 100 µg/mL; with Escherichia coli, above 100 µg/mL; in the data set on Enterobacter cloacae, above 100 µg/mL; with Candida albicans it was above 100 µg/mL; against Streptococcus pyogenes, 100 µg/mL (≈ 173 µM); against Pseudomonas aeruginosa, above 100 µg/mL. Moreover, the MBC (in data set [4]; against Staphylococcus aureus) was above 100 µg/mL in each case. Moreover, the MIC was above 100 µg/mL in the data set on Salmonella paratyphi; above 100 µg/mL with Escherichia coli; above 100 µg/mL against Enterobacter cloacae; above 100 µg/mL in the data set on Candida albicans; 100 µg/mL (≈ 173 µM) with Streptococcus pyogenes; above 100 µg/mL with Pseudomonas aeruginosa. Moreover, the MIC (in [4]; with Staphylococcus aureus) was above 100 µg/mL in each case. The IC50 was 58 µM in data set [1], 17.2 µg/mL (≈ 29.7 µM) in data set [5] and 10.5 µM in data set [7]. In [2], the “Ratio CC50/IC50” value is recorded as 8. Moreover, the CC50 in data set [3] came out at 135 µg/mL (≈ 234 µM). The result (in data set [6]; in the data set with Simplexvirus) was inactive.

Consider `Oc1cc(O)c2c(c1)O[C@@]1(c3ccc(O)c(O)c3)Oc3cc(O)c4c(c3[C@@H]2[C@H]1O)O[C@H](c1ccc(O)c(O)c1)[C@@H](O)C4` [PROANTHOCYANIDIN A1], for which the MBC (against Salmonella paratyphi; in the data set with Escherichia coli; in the data set with Enterobacter cloacae; against Candida albicans; against Pseudomonas aeruginosa; in [4]) was above 100 µg/mL each time. In addition, the MBC against Staphylococcus aureus was above 100 µg/mL. In addition, the MIC in the data set on Salmonella paratyphi is above 100 µg/mL; against Escherichia coli it was above 100 µg/mL; in the data set on Enterobacter cloacae, above 100 µg/mL; in the data set with Candida albicans it was above 100 µg/mL; against Proteus vulgaris it was 50 µg/mL (≈ 86.7 µM); against Pseudomonas aeruginosa it was above 100 µg/mL. Further, the MIC (in data set [4]; against Staphylococcus aureus) was above 100 µg/mL each time. Moreover, the IC50 in data set [1] was 57.1 µM; in data set [5] it was 14 µg/mL (≈ 24.3 µM); in [6], 105 µM; in data set [7], 14.7 µM. In addition, in data set [2], the “Ratio CC50/IC50” value is recorded as 10. This compound yielded a CC50 in [3] of 144 µg/mL (≈ 250 µM). For the same compound, the result with Simplexvirus was inactive.
